Data as given in patent US7342122B2, “Bisphosphonate complexes” (priority 2003, dated 2008).

Legend:
HBC-4 = assay: Cell growth inhibition, breast cancer cell line HBC-4; format: cell-based; conditions: HBC-4, breast cancer cell line
Procedure: (§1) KB cells were purchased from Human Science Research Resource Bank (Osaka, Japan). The cells were cultured in Earle's MEM (GIBCO BRL) containing 10% FBS (Bio Whittaker) at 37° C. under 5% CO2. After 24 hours the test compounds were added to the cells at the indicated concentrations. 72 hours later the cells were stained with tripan blue and counted manually. IC50 is calculated as the concentration (aqueous solution) of complex required to inhibit growth of cells by 50%.
(§2) In a similar fashion a representative number of examples of compounds of the invention were tested for their ability to inhibit the growth/proliferation of cell types representing a number of different cancers. The results are provided in Tables 4-13, below, which provide the Inhibition Constants (IC50, μM) for each compound across various cell lines.

BSY-1 = assay: Cell growth inhibition, breast cancer cell line BSY-1; format: cell-based; conditions: BSY-1, breast cancer cell line
Procedure: as §1, §2

HBC-5 = assay: Cell growth inhibition, breast cancer cell line HBC-5; format: cell-based; conditions: HBC-5, breast cancer cell line
Procedure: as §1, §2

MCF-7 = assay: Cell growth inhibition, breast cancer cell line MCF-7; format: cell-based; conditions: MCF-7, breast cancer cell line
Procedure: as §1, §2

MDA-MB-231 = assay: Cell growth inhibition, breast cancer cell line MDA-MB-231; format: cell-based; conditions: MDA-MB-231, breast cancer cell line
Procedure: as §1, §2

U251 = assay: Cell growth inhibition, brain cancer cell line U251; format: cell-based
Procedure: as §1, §2

SF-268 = assay: Cell growth inhibition, brain cancer cell line SF-268; format: cell-based; conditions: SF-268, brain cancer cell line
Procedure: as §1, §2

SF-295 = assay: Cell growth inhibition, brain cancer cell line SF-295; format: cell-based; conditions: SF-295, brain cancer cell line
Procedure: as §1, §2

SF-539 = assay: Cell growth inhibition, brain cancer cell line SF-539; format: cell-based; conditions: SF-539, brain cancer cell line
Procedure: as §1, §2

SNB-75 = assay: Cell growth inhibition, brain cancer cell line SNB-75; format: cell-based; conditions: SNB-75, brain cancer cell line
Procedure: as §1, §2

SNB-78 = assay: Cell growth inhibition, brain cancer cell line SNB-78; format: cell-based; conditions: SNB-78, brain cancer cell line
Procedure: as §1, §2

HCC2998 = assay: Cell growth inhibition, colon cancer cell line HCC2998; format: cell-based
Procedure: as §1, §2

KM-12 = assay: Cell growth inhibition, colon cancer cell line KM-12; format: cell-based; conditions: KM-12, colon cancer cell line
Procedure: as §1, §2

HT-29 = assay: Cell growth inhibition, colon cancer cell line HT-29; format: cell-based; conditions: HT-29, colon cancer cell line
Procedure: as §1, §2

HCT-15 = assay: Cell growth inhibition, colon cancer cell line HCT-15; format: cell-based; conditions: HCT-15, colon cancer cell line
Procedure: as §1, §2

HCT-116 = assay: Cell growth inhibition, colon cancer cell line HCT-116; format: cell-based; conditions: HCT-116, colon cancer cell line
Procedure: as §1, §2

NCI-H23 = assay: Cell growth inhibition, lung cancer cell line NCI-H23; format: cell-based
Procedure: as §1, §2

NCI-H226 = assay: Cell growth inhibition, lung cancer cell line NCI-H226; format: cell-based
Procedure: as §1, §2

NCI-H522 = assay: Cell growth inhibition, lung cancer cell line NCI-H522; format: cell-based
Procedure: as §1, §2

NCI-H460 = assay: Cell growth inhibition, lung cancer cell line NCI-H460; format: cell-based
Procedure: as §1, §2

A549 = assay: Cell growth inhibition, lung cancer cell line A549; format: cell-based
Procedure: as §1, §2

DMS273 = assay: Cell growth inhibition, lung cancer cell line DMS273; format: cell-based
Procedure: as §1, §2

DMS114 = assay: Cell growth inhibition, lung cancer cell line DMS114; format: cell-based
Procedure: as §1, §2

LOX-IMVI = assay: Cell growth inhibition, melanoma cell line LOX-IMVI; format: cell-based
Procedure: as §1, §2

OVCAR-3 = assay: Cell growth inhibition, ovarian cancer cell line OVCAR-3; format: cell-based; conditions: OVCAR-3, ovarian cancer cell line
Procedure: as §1, §2

OVCAR-4 = assay: Cell growth inhibition, ovarian cancer cell line OVCAR-4; format: cell-based; conditions: OVCAR-4, ovarian cancer cell line
Procedure: as §1, §2

OVCAR-5 = assay: Cell growth inhibition, ovarian cancer cell line OVCAR-5; format: cell-based; conditions: OVCAR-5, ovarian cancer cell line
Procedure: as §1, §2

OVCAR-8 = assay: Cell growth inhibition, ovarian cancer cell line OVCAR-8; format: cell-based; conditions: OVCAR-8, ovarian cancer cell line
Procedure: as §1, §2

SK-OV-3 = assay: Cell growth inhibition, ovarian cancer cell line SK-OV-3; format: cell-based; conditions: SK-OV-3, ovarian cancer cell line
Procedure: as §1, §2

RXF-631L = assay: Cell growth inhibition, renal cancer RXF-631L; format: cell-based
Procedure: as §1, §2

ACHN = assay: Cell growth inhibition, renal cancer ACHN; format: cell-based
Procedure: as §1, §2

St-4 = assay: Cell growth inhibition, human stomach cancer St-4; format: cell-based; conditions: St-4, human stomach cancer
Procedure: as §1, §2

MKN1 = assay: Cell growth inhibition, human stomach cancer MKN1; format: cell-based
Procedure: as §1, §2

MKN7 = assay: Cell growth inhibition, human stomach cancer MKN7; format: cell-based
Procedure: as §1, §2

MKN28 = assay: Cell growth inhibition, human stomach cancer MKN28; format: cell-based
Procedure: as §1, §2

MKN45 = assay: Cell growth inhibition, human stomach cancer MKN45; format: cell-based
Procedure: as §1, §2

MKN74 = assay: Cell growth inhibition, human stomach cancer MKN74; format: cell-based
Procedure: as §1, §2

DU-145 = assay: Cell growth inhibition, prostatic cancer DU-145; format: cell-based, human; conditions: DU-145, prostatic cancer
Procedure: as §1, §2

PC-3 = assay: Cell growth inhibition, prostatic cancer PC-3; format: cell-based; conditions: PC-3, prostatic cancer
Procedure: as §1, §2

[1] = system: all cell types (cancer cell lines of Tables 4-12); assay: Cell growth inhibition, mean over all cell types of the panel; format: cell-based; conditions: mean over all cell lines of Tables 4-12
Procedure: as §1, §2

Molecule | log10 IC50 (M) (HBC-4) | log10 IC50 (M) (BSY-1) | log10 IC50 (M) (HBC-5) | log10 IC50 (M) (MCF-7) | log10 IC50 (M) (MDA-MB-231) | log10 IC50 (M) (U251) | log10 IC50 (M) (SF-268) | log10 IC50 (M) (SF-295) | log10 IC50 (M) (SF-539) | log10 IC50 (M) (SNB-75) | log10 IC50 (M) (SNB-78) | log10 IC50 (M) (HCC2998) | log10 IC50 (M) (KM-12) | log10 IC50 (M) (HT-29) | log10 IC50 (M) (HCT-15) | log10 IC50 (M) (HCT-116) | log10 IC50 (M) (NCI-H23) | log10 IC50 (M) (NCI-H226) | log10 IC50 (M) (NCI-H522) | log10 IC50 (M) (NCI-H460) | also measured
Pt(dach)-IP6 [Example 10] | -5.07 | -4.56 | -5.4 | -5.32 | -4.67 | -4.69 | -4.52 | -4.67 | -5.14 | -4.86 | -4.48 | -4.7 | -4.23 | -4.65 | -5.14 | -5.33 | -4.95 | -5.08 | -5.17 | -5.19 | log10 IC50 (M) (A549): -5.21; log10 IC50 (M) (DMS273): -6.27; log10 IC50 (M) (DMS114): -4.26; log10 IC50 (M) (LOX-IMVI): -5.31; log10 IC50 (M) (OVCAR-3): -4.9; log10 IC50 (M) (OVCAR-4): -5.01; log10 IC50 (M) (OVCAR-5): -4.78; log10 IC50 (M) (OVCAR-8): -4.57; log10 IC50 (M) (SK-OV-3): -4.28; log10 IC50 (M) (RXF-631L): -4.39; log10 IC50 (M) (ACHN): -5.21; log10 IC50 (M) (St-4): -4.3; log10 IC50 (M) (MKN1): -4.89; log10 IC50 (M) (MKN7): -4.17; log10 IC50 (M) (MKN28): -4.19; log10 IC50 (M) (MKN45): -6.21; log10 IC50 (M) (MKN74): -4.15; log10 IC50 (M) (DU-145): -5.03; log10 IC50 (M) (PC-3): -4.46; log10 IC50 (M) [1]: -4.86
cis-Pt (NH3)2(Pyrophosphate) [Example 8] | -4.83 | -5.2 | -5.57 | -4.77 | -4.35 | -4.64 | -5.11 | -5.22 | -5.17 | -4.93 | -4.61 | -4.57 | -4.43 | -4.44 | -4.51 | -4.58 | -5.2 | -4.64 | -5.16 | -5.22 | log10 IC50 (M) (A549): -4.79; log10 IC50 (M) (DMS273): -4.97; log10 IC50 (M) (DMS114): -4.85; log10 IC50 (M) (LOX-IMVI): -4.85; log10 IC50 (M) (OVCAR-3): -4.69; log10 IC50 (M) (OVCAR-4): -4.83; log10 IC50 (M) (OVCAR-5): -4.52; log10 IC50 (M) (OVCAR-8): -4.72; log10 IC50 (M) (SK-OV-3): -4.65; log10 IC50 (M) (RXF-631L): -4.74; log10 IC50 (M) (ACHN): -5.37; log10 IC50 (M) (St-4): -4.61; log10 IC50 (M) (MKN1): -5.18; log10 IC50 (M) (MKN7): -4.76; log10 IC50 (M) (MKN28): -4.52; log10 IC50 (M) (MKN45): -4.91; log10 IC50 (M) (MKN74): -4.5; log10 IC50 (M) (DU-145): -5.29; log10 IC50 (M) (PC-3): -4.45; log10 IC50 (M) [1]: -4.83
[Cl-].[Cl-].c1cc[n+]2c(c1)-c1cccc[n+]1[Pt-2]21[NH2+]CCC[NH+]1Cc1c2ccccc2cc2ccccc12 [Example 7, Pt(bpy)(AtC3)] | -5.76 | -5.89 | -5.89 | -5.69 | -5.78 | -5.66 | -5.62 | -5.62 | -5.75 | -5.59 | -5.54 | -5.7 | -5.69 | -5.69 | -5.56 | -5.72 | -5.53 | -5.64 | -5.77 | -5.71 | log10 IC50 (M) (A549): -5.68; log10 IC50 (M) (DMS273): -5.68; log10 IC50 (M) (DMS114): -5.76; log10 IC50 (M) (LOX-IMVI): -5.76; log10 IC50 (M) (OVCAR-3): -5.68; log10 IC50 (M) (OVCAR-4): -5.7; log10 IC50 (M) (OVCAR-5): -5.8; log10 IC50 (M) (OVCAR-8): -5.52; log10 IC50 (M) (SK-OV-3): -5.61; log10 IC50 (M) (RXF-631L): -5.67; log10 IC50 (M) (ACHN): -5.67; log10 IC50 (M) (St-4): -5.61; log10 IC50 (M) (MKN1): -5.6; log10 IC50 (M) (MKN7): -5.62; log10 IC50 (M) (MKN28): -5.64; log10 IC50 (M) (MKN45): -5.63; log10 IC50 (M) (MKN74): -5.63; log10 IC50 (M) (DU-145): -5.73; log10 IC50 (M) (PC-3): -5.59; log10 IC50 (M) [1]: -5.68
